Series [1] can be described thus: In vivo pharmacokinetics in cynomolgus monkey. The conditions noted are these: plasma. On the procedure: Compound 70 was tested in several in vivo assays and the pharmacokinetic parameters listed in the following table may be determined from pharmacokinetic studies in rat, dog, or cynomolgus monkey, according to known methods as generally described in the following references: Garrison et al. J. Med. Chem. 2022, 65, 6273-6286; Felts et al. J. Med. Chem 2017, 60, 5072-5085; and Yu et al. J. Med. Chem. 2021, 64, 4709-4729.

Another series has as its target T1, human muscarinic 2 (Homo sapiens, UniProt P08172).
T1 sequence (P08172 1-466): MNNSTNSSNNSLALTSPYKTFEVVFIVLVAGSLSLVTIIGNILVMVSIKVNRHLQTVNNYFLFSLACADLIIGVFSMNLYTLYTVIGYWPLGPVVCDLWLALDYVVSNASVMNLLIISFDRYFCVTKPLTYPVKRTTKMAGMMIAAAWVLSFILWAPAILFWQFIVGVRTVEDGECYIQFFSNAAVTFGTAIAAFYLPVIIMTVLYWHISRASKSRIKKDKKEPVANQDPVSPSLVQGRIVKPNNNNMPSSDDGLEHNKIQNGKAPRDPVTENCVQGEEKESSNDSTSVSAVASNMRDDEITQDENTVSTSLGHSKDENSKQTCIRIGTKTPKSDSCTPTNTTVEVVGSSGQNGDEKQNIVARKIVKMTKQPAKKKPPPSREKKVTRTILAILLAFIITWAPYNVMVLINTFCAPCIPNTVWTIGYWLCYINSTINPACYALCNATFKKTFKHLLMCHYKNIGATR
Description: Eurofins LeadProfilingScreen, human muscarinic 2 (binding). Conditions: 10 μM (binding). On the procedure: Compound 70 was tested using Eurofins LeadProfilingScreen®, which detects potential off-target activity and determines relative selectivity. The screen includes 68 primary molecular targets, including several CNS targets recommended by the EMEA (European Medicines Evaluation Agency) to evaluate drug dependence potential.

A further series in a line: Dog intrinsic clearance. In kind it is in vitro ADME. On the procedure: (§1) Compound 70 was tested in several in in vitro assays to investigate both metabolism and pharmacokinetics. These assays may be performed according to known methods as generally described in the following references: Conde-Ceide et al. ACS Med. Chem. Lett. 2015, 6, 716-720; Morris et al. J. Med. Chem. 2014, 57, 10192-10197; and Bubser et al. ACS Chem. Neurosci. 2014, 5, 920-942.

Series [2] in a line: Fraction unbound in human plasma. In kind it is in vitro ADME. The conditions noted are these: read-out: Human Fu (plasma). On the procedure: as §1
Series [3] can be described thus: Fraction unbound in rat plasma. Type of series: in vitro ADME. The conditions noted are these: read-out: Rat Fu (plasma). On the procedure: as §1

Data on 1 compound can be found in patent publication US12139498B1, “Positive allosteric modulators of the muscarinic acetylcholine receptor M4” (Vanderbilt University, priority 2023, dated 2024).

The inhibition is the relative decrease from the control value, in per cent. A word on the CLint scaled: it is a measure of how fast metabolising enzymes remove a compound, apart from limits set by blood flow. `Cc1c(N2CCc3nc(C4(F)CC4)sc3C2)nc2nn(C)c(=O)n2c1C` [Compound 70, 7-(2-(1-fluorocyclopropyl)-6,7-dihydrothiazolo[5,4-c]pyridin-5(4H)-yl)-2,5,6-trimethyl-[1,2,4]triazolo[4,3-a]pyrimidin-3(2H)-one]: in series [1] (read-out: Cyno CLp), the clearance was 4.9 mL/min/kg. In series [1] (read-out: Cyno Elim. t1/2 (converted)), the half-life is 4.2 h. Also, the Vd in series [1] (read-out: Cyno Vss) was determined as 1.4 L/kg. In addition, the inhibition at 10 µM on human muscarinic 2 came out at 58%. Further, the intrinsic clearance (CLint scaled) in “Dog intrinsic clearance” came to 17 mL/min/kg. In addition, the fraction unbound in series [2] was determined as 0.217; in series [3], 0.267.
